Test results published in patent publication US10730870B2, “Compounds and methods for the enhanced degradation of targeted proteins” (Arvinas, Inc., priority 2015, dated 2020).

Columns and labels:
Androgen Receptor = assay: Androgen receptor ELISA assay (AR degradation) in LNCaP and/or VCaP cells; format: cell-based; settings: AR PROTACs
Experimental: Compounds have been evaluated in this assay in LNCaP and/or VCaP cells utilizing similar protocols. The protocols used with VCaP cells are described below. The androgen receptor ELISA assay was performed using PathScan AR ELISA (Cell Signaling Catalog #12850) according to the following assay steps:
VCaP cells are seeded at 30,000 cells/well at a volume of 200 μL/well in VCaP assay medium [Phenol red free RPMI (Gibco Cat #11835-030); 5% Charcoal Stripped (Dextran treated) FBS (Omega Scientific, Cat # FB-04); Pen/Strep Life Technologies (Gibco Cat #: 10378-016); 0.1 nM R1881 (Sigma, Cat # R0908) is added upon the start of the assay, not during initial plating of the cells) in Corning 3904 plates. The cells are grown for a minimum of 3 days.
(2)(i) Make 10× stock plate in media; (ii) transfer 2.5 μL of the 1000× stock to a new 10× stock plate (use 12 channel pipet, start at A (DMSO control) work thru H. When 247.5 μL of media is added to this plate, it will serve as a 10× stock; (iii) make media+1 nM R1881 for making 10× stock plate; (iv) add 247.5 μL of media with 1 nM R1881 to each well of the 10× stock plate, mix.
Then 22 μL of 10× stock is added to cells and incubated for 24h. 1× Cell Signaling Cell lysis buffer is made (Catalogue #9803; comes with the kit)—prepare for 50 μL/well. Keep on ice. Media is aspirated, and 50 μL 1× cell lysis buffer/well is added. The cells are placed on ice for 10 minutes. The solution is mixed and transferred to PCR plate, and centrifuged at 4 C for 10 minutes at 4000 rpm.
5 μL is transferred to fresh plate (use immediately or freeze −80 C); 115 μL ELISA Dilutant is added (0.15 ug/ml-0.075 ug/ml; comes with the PathScan ELISA).
Add 100 μL/well AR Elisa; cover and shake, 37 C for 2 hrs; dump, tap, wash 4×200 μL ELISA wash buffer; add 100 μL/well mouse AR detection Ab; cover and shake, 37 C for 1 hr; dump, tap, wash 4×200 μL ELISA wash buffer; add 100 μL/well anti-mouse—HRP conjugated Ab (comes with the kit); cover and shake, 37 C for 30 min; allow TMB reagent to come to RT; dump, tap, wash 4×200 μL Elisa wash buffer; tap; add 100 μL TMB, shake 5 min—while watching color. Add the stop reagent when light blue color develops. Add 100 μL Stop solution; shake and read at 450 nm.
The results presented in Table 3 were generated using the androgen receptor ELISA Assay described above, where compound potencies were characterized in highest percentage of Androgen Receptor degradation (Dmax) observed.

BRD4 = BRD4 c-myc ELISA assay in 22RV-1 cells; format: cell-based; settings: 18 hrs
Experimental: 22RV-1 cells were seeded at 30,000 cells/well at a volume of 75 μL/well in RPMI +10% FBS media in 96-well plates and grown overnight at 37 C. Cells were dosed with compounds at 4× concentration diluted in 0.4% DMSO; compounds were serially diluted 1:3 for 8-point dose curve. 25 ul of compound was added to cells for a final concentration starting at 300 nM-0.3 nM in 0.1% DMSO and incubated for 18 hrs. Media was aspirated, cells washed 1× with PBS and aspirated. Cells were lysed in 50 ul RIPA buffer (50 mM Tris pH8, 150 mM NaCl, 1% Tx-100, 0.1% SDS, 0.5% sodium deoxycholate) supplemented with protease and phosphatase inhibitors. Plates were incubated on ice for 15 minutes then centrifuged at 4° C. for 10 min at 4000 rpm. Added 50 ul of cleared lysate from 96-well assay plate into 96-well c-myc ELISA plate (Novex, Life Technologies Catalog # KH02041). […] The rest of the assay was performed following the protocol from the c-myc ELISA kit. Data was analyzed and plotted using GraphPad Prism software.

VHL = VHL (Homo sapiens (Human), UniProt P40337); assay: VHL fluorescence polarization (FP) competition assay; format: binding; settings: 1% in DMSO
His-tagged VHL protein = His-tagged VHL protein (Homo sapiens (Human), UniProt P40337); assay: Surface plasmon resonance (SPR) assay; format: binding; settings: average of at least N=2, 1:1 fitting
Experimental: The surface plasmon resonance (SPR) experiments were conducted on a Biacore3000 (GE Healthcare). His-tagged VHL protein was immobilized on a carboxymethylated dextran surface with nitriloacetic acid (NTA), taking advantage of NTA/Ni^2+ chelation. The prepared surface was allowed to equilibrate over three hours in running buffer (Ambion 1×PBS buffer @ pH 7/4, 0.005% Tween, 2% DMSO).
All compounds were prepared in 100% DMSO stock plates with a top concentration of 5 mM in a 3× serial dilution. Compounds were transferred from the stock plate to the assay plate and diluted into running buffer containing no DMSO. All compounds were run as a six-concentration series with a final assay top concentration of 100 uM. Data analysis was performed in Scrubber 2 (BioLogic software, Campbell, Australia). Blanks were subtracted and data was corrected for DMSO using a standard DMSO curve.
Table 2 illustrates VHL inhibition data (i.e., Kd, μM) of examples contained herein in a surface plasmon resonance (SPR) assay.

LNCap and VCaP cells = assay: Apoptosis, cell death and anti-proliferation in LNCaP and VCaP cell systems; format: cell-based; settings: increasing concentrations of AR agonist R1881 and cells containing the AR F876L mutation

Compound: Cc1ncsc1-c1ccc([C@H](C)NC(=O)[C@@H]2C[C@@H](O)CN2C(=O)[C@H](C(C)C)n2cc(-c3ccnc(OC4CN(c5ccc(C(=O)N[C@H]6C(C)(C)[C@H](Oc7ccc(C#N)c(Cl)c7)C6(C)C)cn5)C4)c3)cn2)cc1
- Dmax (highest percentage of Androgen Receptor degradation) (Androgen Receptor): +++ (51%≤Dmax≤70%)

Compound: Cc1ncsc1-c1ccc([C@H](C)NC(=O)[C@@H]2C[C@@H](O)CN2C(=O)[C@H](C(C)C)n2cc(-c3ccnc(OC4CN(c5ncc(C(=O)NC6C(C)(C)C(Oc7ccc(C#N)c(Cl)c7)C6(C)C)cn5)C4)c3)cn2)cc1 (some centres unmarked)
- Dmax (highest percentage of Androgen Receptor degradation) (Androgen Receptor): +++ (51%≤Dmax≤70%)

Compound: Cc1ncsc1-c1ccc([C@H](C)NC(=O)[C@@H]2C[C@@H](O)CN2C(=O)[C@H](C(C)C)n2cc(OCCCOCCC(O)CCOc3ccc(N4C(=S)N(c5ccc(C#N)c(C(F)(F)F)c5)C(=O)C4(C)C)cc3)cn2)cc1 (some centres unmarked)
- Dmax (highest percentage of Androgen Receptor degradation) (Androgen Receptor): +++ (51%≤Dmax≤70%)

Compound: Cc1ncsc1-c1ccc(CNC(=O)[C@@H]2C[C@@H](O)CN2C(=O)C(C(C)C)n2cc(OC3CCN(c4ccc(-c5ccc(N6C(=S)N(c7ccc(C#N)c(C(F)(F)F)c7)C(=O)C6(C)C)cc5)cn4)CC3)cn2)cc1 (some centres unmarked)
- Dmax (highest percentage of Androgen Receptor degradation) (Androgen Receptor): ++ (26%≤Dmax≤50%)

Compound: Cc1ncsc1-c1ccc([C@H](C)NC(=O)[C@@H]2C[C@@H](O)CN2C(=O)[C@H](C(C)C)n2cc(-c3ccnc(N4CCC(Nc5ccc(C(=O)N[C@H]6C(C)(C)[C@H](Oc7ccc(C#N)c(Cl)c7)C6(C)C)cc5)C4)c3)cn2)cc1 (some centres unmarked)
- Dmax (highest percentage of Androgen Receptor degradation) (Androgen Receptor): ++ (26%≤Dmax≤50%)

Compound: Cc1ncsc1-c1ccc([C@H](C)NC(=O)[C@@H]2C[C@@H](O)CN2C(=O)[C@H](C(C)C)n2cc(-c3ccnc(O[C@H]4C[C@H](NC(=O)C[C@@H]5N=C(c6ccc(Cl)cc6)c6c(sc(C)c6C)-n6c(C)nnc65)C4)c3)cn2)cc1
- cMyc Imax (BRD4): ++++ (71%≤Imax)

Compound: Cc1ncsc1-c1ccc([C@H](C)NC(=O)[C@@H]2C[C@@H](O)CN2C(=O)[C@H](C(C)C)n2cc(-c3ccnc(N4CC[C@H](NC(=O)C[C@@H]5N=C(c6ccc(Cl)cc6)c6c(sc(C)c6C)-n6c(C)nnc65)C4)c3)cn2)cc1
- cMyc Imax (BRD4): ++++ (71%≤Imax)

Compound: Cc1ncsc1-c1ccc([C@H](C)NC(=O)[C@@H]2C[C@@H](O)CN2C(=O)[C@@H](C(C)C)n2cc(-c3ccnc(O[C@H]4C[C@H](NC(=O)C[C@@H]5N=C(c6ccc(Cl)cc6)c6c(sc(C)c6C)-n6c(C)nnc65)C4)c3)cn2)cc1
- cMyc Imax (BRD4): +++ (51%≤Imax≤70%)

Compound: Cc1ncsc1-c1ccc([C@H](C)NC(=O)[C@@H]2C[C@@H](O)CN2C(=O)[C@@H](n2cc(-c3ccnc(O[C@H]4C[C@@H](NC(=O)C[C@@H]5N=C(c6ccc(Cl)cc6)c6c(sc(C)c6C)-n6c(C)nnc65)C4)c3)cn2)C(C)(C)C)cc1
- cMyc Imax (BRD4): ++++ (71%≤Imax)

Compound: Cc1ncsc1-c1ccc(CNC(=O)[C@@H]2C[C@@H](O)CN2C(=O)[C@H](C(C)C)n2cc(-c3cccc(O[C@H](C)CNC(=O)C[C@@H]4N=C(c5ccc(Cl)cc5)c5c(sc(C)c5C)-n5c(C)nnc54)c3)cn2)cc1
- cMyc Imax (BRD4): ++++ (71%≤Imax)

Compound: CC(C)[C@@H](C(=O)N1C[C@H](O)C[C@H]1C(=O)NCc1ccc(-c2ccno2)cc1)N1Cc2ccccc2C1=O [Example 136, (2S,4R)-4-hydroxy-N-(4-(isoxazol-5-yl)benzyl)-1-((S)-3-methyl-2-(1-oxoisoindolin-2-yl)butanoyl)pyrrolidine-2-carboxamide]
- IC50 (VHL): 5.59 µM

Compound: Cc1cc(C(C)(C)C(=O)N2C[C@H](O)C[C@H]2C(=O)NCc2ccc(-c3scnc3C)cc2)on1 [Example 140, (2S,4R)-4-hydroxy-1-(2-methyl-2-(3-methylisoxazol-5-yl)propanoyl)-N-(4-(4-methylthiazol-5-yl)benzyl)pyrrolidine-2-carboxamide]
- IC50 (VHL): 157 µM

Compound: Cc1ncsc1-c1ccc(CNC(=O)[C@@H]2C[C@@](C)(O)CN2C(=O)[C@H](C(C)C)N2Cc3ccccc3C2=O)cc1 [Example 142, (2S,4R)-4-hydroxy-4-methyl-1-((S)-3-methyl-2-(1-oxoisoindolin-2-yl)butanoyl)-N-(4-(4-methylthiazol-5-yl)benzyl)pyrrolidine-2-carboxamide]
- IC50 (VHL): 134 µM

Compound: CCC(C(=O)N1C[C@H](O)C[C@H]1C(=O)NCc1ccc(-c2scnc2C)cc1)c1cc(C)no1 (stereo partly drawn) [Example 143, (2S,4R)-4-hydroxy-1-(2-(3-methylisoxazol-5-yl)butanoyl)-N-(4-(4-methylthiazol-5-yl)benzyl)pyrrolidine-2-carboxamide]
- IC50 (VHL): 0.964 µM

Compound: Cc1ncsc1-c1ccc(CNC(=O)[C@@H]2C[C@@](O)(CO)CN2C(=O)[C@H](C(C)C)N2Cc3ccccc3C2=O)cc1 [Example 144, (2S,4S)-4-hydroxy-4-(hydroxymethyl)-1-((S)-3-methyl-2-(1-oxoisoindolin-2-yl)butanoyl)-N-(4-(4-methylthiazol-5-yl)benzyl)pyrrolidine-2-carboxamide]
- VHL FP Assay IC50 (VHL): Not active

Compound: Cc1ncsc1-c1ccc(CNC(=O)[C@@H]2[C@@H](O)[C@@H](O)CN2C(=O)[C@H](C(C)C)N2Cc3ccccc3C2=O)cc1 [Example 147, (2S,3R,4S)-3,4-dihydroxy-1-((S)-3-methyl-2-(1-oxoisoindolin-2-yl)butanoyl)-N-(4-(4-methylthiazol-5-yl)benzyl)pyrrolidine-2-carboxamide]
- IC50 (VHL): 12.4 µM

Compound: CCC[C@H](NC(C)=O)C(=O)N1C[C@H](O)C[C@H]1C(=O)NCc1ccc(-c2scnc2C)cc1 [Example 148, (2S,4R)-1-((S)-2-acetamidopentanoyl)-4-hydroxy-N-(4-(4-methylthiazol-5-yl)benzyl)pyrrolidine-2-carboxamide]
- IC50 (VHL): 6.2 µM

Compound: Cc1cc([C@H](C(=O)N2C[C@H](O)C[C@H]2C(=O)N[C@@H](C)c2ccc(-c3scnc3C)cc2)C(C)C)on1 [Example 205, (2S,4R)-4-hydroxy-N-[(1S)-1-[4-(4-methyl-1,3-thiazol-5-yl)phenyl]ethyl]-1-[(2R)-3-methyl-2-(3-methyl-1,2-oxazol-5-yl)butanoyl]pyrrolidine-2-carboxamide]
- Kd (His-tagged VHL protein): 0.33 µM

Compound: CC[C@H](NC(=O)[C@@H]1C[C@@H](O)CN1C(=O)[C@@H](c1cc(C)no1)C(C)C)c1ccc(-c2scnc2C)cc1 [Example 207, (2S,4R)-4-hydroxy-N-[(1S)-1-[4-(4-methyl-1,3-thiazol-5-yl)phenyl]propyl]-1-[(2R)-3-methyl-2-(3-methyl-1,2-oxazol-5-yl)butanoyl]pyrrolidine-2-carboxamide]
- Kd (His-tagged VHL protein): 0.24 µM

Compound: CNC(=O)c1ccc(N2C(=S)N(c3ccc(C#N)c(C(F)(F)F)c3)C(=O)C2(C)C)cc1F [enzalutamide]
- anti-proliferative activity (LNCap and VCaP cells): inactive
